This note sets out measurements from patent publication US7709471B2, “Compounds” (AstraZeneca AB, priority 2006, dated 2010).

The structures appear in SMILES notation. Some results are limits rather than exact numbers.

In the assay the test system is human colon tumour cell line HT29. As to the kind of experiment: Cellular Assay (phosphohistone H3 Ser10 mitotic marker, HT29). Particulars: HT-29, 24 h, HT29 cells, read-out: IC50 (cellular assay, phosphohistone H3). In kind it is cell-based.
Procedure: Chromosome condensation in mitosis is accompanied by phosphorylation of histone H3 on serine 10.
After 24 hours, cells were fixed in 3.7% (v/v) formaldehyde then permeabilised and blocked for 10 minutes in 100 μl 0.5% (v/v) Triton X-100, 1% (w/v) bovine serum albumin (BSA) in phosphate buffered saline (PBS). […] The raw assay data were analysed by non-linear regression analysis and used to determine an IC50 value for each compound.
For `CN1C(=O)CCN(C2CCCCC2)c2nc(Nc3cc(F)c(C(=O)NCC4(CN5CCCC5)CC4)cc3F)ncc21` [Example 413, 4-[(2-cyclohexyl-6-methyl-5-oxo-2,6,9,11-tetrazabicyclo[5.4.0]undeca-7,9,11-trien-10-yl)amino]-2,5-difluoro-N-[[1-(pyrrolidin-1-ylmethyl)cyclopropyl]methyl]benzamide], the IC50 (commonly the concentration that gives 50% inhibition) is < 1000 nM.

With `CN1CC[C@@H](NC(=O)c2cc(F)c(Nc3ncc4c(n3)N(C3CCCCC3)CCC(=O)N4C)cc2F)C1` [Example 414, 4-[(2-cyclohexyl-6-methyl-5-oxo-2,6,9,11-tetrazabicyclo[5.4.0]undeca-7,9,11-trien-10-yl)amino]-2,5-difluoro-N-[(3R)-1-methylpyrrolidin-3-yl]benzamide], the IC50 was < 300 nM. The same measure for `CCN1CCC(NC(=O)c2cc(F)c(Nc3ncc4c(n3)N(C3CCCCC3)CCC(=O)N4C)cc2F)CC1` [Example 415, 4-[(2-cyclohexyl-6-methyl-5-oxo-2,6,9,11-tetrazabicyclo[5.4.0]undeca-7,9,11-trien-10-yl)amino]-N-(1-ethyl-4-piperidyl)-2,5-difluoro-benzamide]: < 300 nM; for `CN1C(=O)CCN(C2CCCCC2)c2nc(Nc3cc(F)c(C(=O)NCCN4CCCC4)cc3F)ncc21` [Example 416, 4-[(2-cyclohexyl-6-methyl-5-oxo-2,6,9,11-tetrazabicyclo[5.4.0]undeca-7,9,11-trien-10-yl)amino]-2,5-difluoro-N-(2-pyrrolidin-1-ylethyl)benzamide]: < 1000 nM; for `CN1C(=O)CCN(C2CCCCC2)c2nc(Nc3ccc(C(=O)NC4C[C@H]5CCC[C@@H](C4)N5C)cc3F)ncc21` (stereo partly drawn) [Example 417, 4-[(2-cyclohexyl-6-methyl-5-oxo-2,6,9,11-tetrazabicyclo[5.4.0]undeca-7,9,11-trien-10-yl)amino]-3-fluoro-N-[(1S,5R)-9-methyl-9-azabicyclo[3.3.1]non-7-yl]benzamide]: < 300 nM. On to `COc1cc(C(=O)NC2C[C@H]3CCC[C@@H](C2)N3C)ccc1Nc1ncc2c(n1)N(C1CCCCC1)CCC(=O)N2C` (stereo partly drawn) [Example 418, 4-[(2-cyclohexyl-6-methyl-5-oxo-2,6,9,11-tetrazabicyclo[5.4.0]undeca-7,9,11-trien-10-yl)amino]-3-methoxy-N-[(1R,5S)-9-methyl-9-azabicyclo[3.3.1]non-7-yl]benzamide], for which the IC50 is < 300 nM.

On to `COc1cc(C(=O)NCC2(CN3CCCC3)CC2)c(F)cc1Nc1ncc2c(n1)N(C1CCCCC1)CCC(=O)N2C` [Example 419, 4-[(2-cyclohexyl-6-methyl-5-oxo-2,6,9,11-tetrazabicyclo[5.4.0]undeca-7,9,11-trien-10-yl)amino]-2-fluoro-5-methoxy-N-[[1-(pyrrolidin-1-ylmethyl)cyclopropyl]methyl]benzamide], for which the IC50 is < 1000 nM.

With `COc1cc(C(=O)N[C@@H]2CCN(C)C2)c(F)cc1Nc1ncc2c(n1)N(C1CCCCC1)CCC(=O)N2C` [Example 420, 4-[(2-cyclohexyl-6-methyl-5-oxo-2,6,9,11-tetrazabicyclo[5.4.0]undeca-7,9,11-trien-10-yl)amino]-2-fluoro-5-methoxy-N-[(3R)-1-methylpyrrolidin-3-yl]benzamide], the IC50 is < 300 nM. The same measure for `COc1cc(C(=O)N[C@@H]2CCN(C)C2)ccc1Nc1ncc2c(n1)N(C1CCCCC1)CCC(=O)N2C` [Example 421, 4-[(2-cyclohexyl-6-methyl-5-oxo-2,6,9,11-tetrazabicyclo[5.4.0]undeca-7,9,11-trien-10-yl)amino]-3-methoxy-N-[(3R)-1-methylpyrrolidin-3-yl]benzamide]: < 300 nM. To `CCN1CCC(NC(=O)c2cc(OC)c(Nc3ncc4c(n3)N(C3CCCCC3)CCC(=O)N4C)cc2F)CC1` [Example 422, 4-[(2-cyclohexyl-6-methyl-5-oxo-2,6,9,11-tetrazabicyclo[5.4.0]undeca-7,9,11-trien-10-yl)amino]-N-(1-ethyl-4-piperidyl)-2-fluoro-5-methoxy-benzamide] belongs < 300 nM. To `CCN1CCC(NC(=O)c2ccc(Nc3ncc4c(n3)N(C3CCCCC3)CCC(=O)N4C)c(OC)c2)CC1` [Example 423, 4-[(2-cyclohexyl-6-methyl-5-oxo-2,6,9,11-tetrazabicyclo[5.4.0]undeca-7,9,11-trien-10-yl)amino]-N-(1-ethyl-4-piperidyl)-3-methoxy-benzamide] belongs < 300 nM; to `COc1cc(C(=O)NCCCN(C)C)ccc1Nc1ncc2c(n1)N(C1CCCCC1)CCC(=O)N2C` [Example 424, 4-[(2-cyclohexyl-6-methyl-5-oxo-2,6,9,11-tetrazabicyclo[5.4.0]undeca-7,9,11-trien-10-yl)amino]-N-(3-dimethylaminopropyl)-3-methoxy-benzamide], < 300 nM; to `COc1cc(C(=O)NCCN2CCCC2)c(F)cc1Nc1ncc2c(n1)N(C1CCCCC1)CCC(=O)N2C` [Example 425, 4-[(2-cyclohexyl-6-methyl-5-oxo-2,6,9,11-tetrazabicyclo[5.4.0]undeca-7,9,11-trien-10-yl)amino]-2-fluoro-5-methoxy-N-(2-pyrrolidin-1-ylethyl)benzamide], < 300 nM. For the compound `COc1cc(C(=O)NCCN(C)C)ccc1Nc1ncc2c(n1)N(C1CCCCC1)CCC(=O)N2C` [Example 426, 4-[(2-cyclohexyl-6-methyl-5-oxo-2,6,9,11-tetrazabicyclo[5.4.0]undeca-7,9,11-trien-10-yl)amino]-N-(2-dimethylaminoethyl)-3-methoxy-benzamide], the IC50 is < 300 nM.

As to `COc1cc(C(=O)NC2C[C@H]3CCC[C@@H](C2)N3C)c(F)cc1Nc1ncc2c(n1)N(C1CCCCC1)CCC(=O)N2C` (stereo partly drawn) [Example 427, 4-[(2-cyclohexyl-6-methyl-5-oxo-2,6,9,11-tetrazabicyclo[5.4.0]undeca-7,9,11-trien-10-yl)amino]-2-fluoro-5-methoxy-N-[(1R,5S)-9-methyl-9-azabicyclo[3.3.1]non-7-yl]benzamide], the IC50 is < 300 nM. The same measure for `CN1C(=O)C2(CC2)CN(C2CCCCC2)c2nc(Nc3ccc(C(=O)NC4C[C@H]5CCC[C@@H](C4)N5C)cc3F)ncc21` (stereo partly drawn) [Example 435, 4-(9′-cyclohexyl-5′-methyl-6′-oxo-5′,6′,8′,9′-tetrahydrospiro[cyclopropane-1,7′-pyrimido[5,4-b][1,4]diazepine]-2′-ylamino)-3-fluoro-N-[(1S,5R)-9-methyl-9-azabicyclo[3.3.1]non-7-yl]benzamide]: < 300 nM; for `CN1CCC(NC(=O)c2cc(F)c(Nc3ncc4c(n3)N(C3CCCCC3)CC3(CC3)C(=O)N4C)cc2F)CC1` [Example 436, 4-(9′-cyclohexyl-5′-methyl-6′-oxo-5′,6′,8′,9′-tetrahydrospiro[cyclopropane-1,7′-pyrimido[5,4-b][1,4]diazepine]-2′-ylamino)-2,5-difluoro-N-(1-methyl-4-piperidyl)benzamide]: < 300 nM. To `CN1C(=O)C2(CC2)CN(C2CCCCC2)c2nc(Nc3cc(F)c(C(=O)NC4CCC(N(C)C)CC4)cc3Cl)ncc21` (stereo not drawn) [Example 437, 5-chloro-4-(9′-cyclohexyl-5′-methyl-6′-oxo-5′,6′,8′,9′-tetrahydrospiro[cyclopropane-1,7′-pyrimido[5,4-b][1,4]diazepine]-2′-ylamino)-N-(4-dimethylaminocyclohexyl)-2-fluoro-benzamide] belongs < 300 nM.
